Here are results for eleven compounds from US5482957A, “Azole derivatives, process for their preparation and their use” (Hoechst Aktiengesellschaft, priority 1991, dated 1996).

The target in this test is angiotensin II receptor. Put plainly: Displacement of 125I- or 3H-angiotensin II from receptor preparations from various organs (liver, lung, adrenal gland, brain etc.). Format: binding. Particulars: Table 1; radioligand displacement, 25° C., 90 min, pH 7.4. The method, then:
Alternatively, the affinity of the compounds of the formula I for the angiotensin II receptor can be determined by measurement of the ^125 I-angiotensin II or ^3 H-angiotensin II displacement of receptor preparations from various organs (liver, lung, adrenal gland, brain etc.).
To this end, the prepared membranes are suspended in an incubation buffer ([…], pH 7.4, containing 135 mM NaCl, 10 mM KCl, 10 mM MgCl2, 5 mM glucose, 0.2% bovine serum albumin and the protease inhibitors PMSF, 0.3 mM, and bacitracin, 0.1 mM) and incubated at 25° C. for 90 min together with the radioactively labeled angiotensin II and various concentrations of the compounds to be tested. Bound and free radioligand are then separated by filtration through micro glass fiber filters (GF51, Schleicher and Schull) in a cell collector (SKATRON).
The degree of displacement of the radioligand from the receptor by the test compounds is determined by measurement of the receptor-bound radioactivity on the filters by means of a beta- or gamma-spectrometer. The amount of the displacement of the radioligand from the receptor by the test compounds is indicated by the IC50, i.e. the concentration of the inhibitor which displaces 50% of the bound radioligand from the receptor. The calculation of the IC50 values is carried out by means of PC software (LIGAND, G. A. McPherson 1985, Elsevier BIOSOFT, 68 Hills Road, Cambridge, CB2 1LA, UK.).
(In general: Loss of bound radioactivity is the signal in a displacement assay; it reports binding, not function.)
As a reminder, the IC50 is the point on the concentration scale where inhibition reaches its midpoint. Low readings indicate greater potency, high ones weaker potency. On to `CCCCc1nc(Cl)c(C=O)n1Cc1ccc(-c2cccc(S(=O)(=O)NC(=O)Nc3nnn[nH]3)c2)cc1` [Example 5], for which the IC50 was found to be 16000 nM.

As to `CCCCc1nc(SC)c(C(=O)OCC)n1Cc1ccc(-c2ccccc2S(=O)(=O)NC(=O)NCCC)cc1` [Example 105], the half-maximal inhibitory concentration (IC50) came to 3 nM.

`CCCCc1nc(SC)c(C(=O)O)n1Cc1ccc(-c2ccccc2S(=O)(=O)NC(=O)N[C@@H](Cc2ccccc2)C(=O)O)cc1` [Example 98]: the IC50 was found to be 1.4 nM.

Turning to `CCCCc1nc(SC)c(C(=O)O)n1Cc1ccc(-c2ccccc2S(=O)(=O)NC(=O)OCC2CC2)cc1` [Example 155], the IC50 is 6 nM.

`C=CCCCOC(=O)NS(=O)(=O)c1ccccc1-c1ccc(Cn2c(CCCC)nc(SC)c2C(=O)O)cc1` [Example 167] registered an IC50 of 4 nM.

In the case of `CCCCc1nc(SC)c(C(=O)OCC)n1Cc1ccc(-c2ccccc2S(=O)(=O)NC(=O)N2CCC(NC(=O)OC(C)(C)C)CC2)cc1` [Example 146], the IC50 was 40 nM.

`CCCCc1nc(SC)c(C(=O)OCC)n1Cc1ccc(-c2ccccc2S(=O)(=O)NC(=O)NCC(=O)OC)cc1` [Example 71] registered an IC50 of 2.2 nM.

`CCCCc1nc(SC)c(C(=O)OCC)n1Cc1ccc(-c2ccccc2S(=O)(=O)NC(=O)N2CCOCC2)cc1` [Example 140] showed an IC50 of 8.2 nM.

For `CCCCc1nc(SC)c(C(=O)O)n1Cc1ccc(-c2ccccc2S(=O)(=O)NC(=O)Nc2ccccc2)cc1` [Example 102], the 50% inhibitory concentration (IC50) is 2.3 nM.

For `CCCCc1nc(SC)c(C(=O)O)n1Cc1ccc(-c2ccccc2S(=O)(=O)NC(=O)OCC=Cc2ccccc2)cc1` [Example 162], the IC50 came to 3.9 nM.

For `CCCCc1nc(SC)c(C(=O)OCC)n1Cc1ccc(-c2ccccc2S(=O)(=O)NC(=O)Nc2ccccc2)cc1` [Example 99], the IC50 came to 26.6 nM.
